Assay results from article PMC9504208, “Comprehensive Study of Antiretroviral Drug Permeability at the Cervicovaginal Mucosa via an In Vitro Model” (Pharmaceutics, 2022).

What was measured:
Type in all cases: cell-based, human
[1] = tested on: drug transporter mRNA expression in VK2/E6E7 cells; assay: Drug transporter mRNA expression (RT-qPCR) in stimulated VK2/E6E7 cells; settings: for Expression of uptake transporters OATP8 and CNT3 / P-gp mRNA level: 72 h cytokine stimulation
Protocol: (§1) Control was 0.1% DMSO with no drug. Cytokines were reconstituted in sterile and distilled water and added individually to cell cultures at the following concentrations: TNF-α (200 pg/mL), IL-1β (8 ng/mL), IL-6 (5 ng/mL) and IL-8 (100 ng/mL) were. […] Cells were stimulated for either drugs, cytokines or hormones for 72 h, before harvesting by centrifugation at 300× g for 10 min at 4 °C. For Lactobacillus crispatus a final MoI of 10 was used (10:1, bacterial cells:mammalian cell ratio) for co-culture in both HEC-1A and VK2/E6E7 cell lines. For Candida albicans, a final MoI of 1 for HEC-1A cells and 0.25 for VK2/E6E7 cells was used. Cells were incubated with fungal cells at 37 °C/5% CO2 for 24 h. All cell line stimulation experiments were conducted as a minimum of three biological repeats.
(§2) RNA extraction was performed using the RNeasy® Mini Kit (Qiagen, Manchester, UK). Cells were lysed by suspension in 600 μL of RLT Buffer with 1% β-mercaptoethanol (Sigma-Aldrich) and mechanical lysis into a QIAshredder (Qiagen). After the addition of 70% ethanol, the solution was loaded onto RNeasy columns for RNA purification as per the manufacturer’s instructions. DNase treatment was 15 min at room temperature. RNA was eluted from the columns with 30 μL of RNase-free ddH2O. Tapestation analysis was performed using an Agilent 2200 Tapestation system to determine the integrity of the RNA.
(§3) Synthesis of cDNA was performed using a Superscript® VILO™ kit (Life Technologies, Paisley, UK). Reverse transcription was performed at 25 °C for 10 min, 42 °C for 60 min and 85 °C for 5 min. The cDNA was then stored at −20 °C until RT-PCR assays.
(§4) SYBRgreen® PrecisionTM 2× qPCR Mastermix with ROX quencher (Primer Design, Southampton, UK) was used for all RT-qPCR assays. Individual primers were designed to target the HPRT1 and RPLP0 housekeeper genes (selected from an initial panel based on SD scores as a measure of the consistency of expression amongst all samples) in addition to seventeen ARV-associated drug transporters (9 ABC transporters and 8 SLC transporters) replicating the system contained in the TaqMan® 96-well Drug Transporter Array system (Life Technologies, Paisley, UK). Real-time quantitative PCR was performed using the 7900HT Fast Real-Time PCR system and data was analysed using the SDS 2.4 software (Applied Biosystems, Waltham, MA, USA). Cycling conditions were: 95 °C for 5 min, followed by 40 cycles of denaturation at 95 °C for 10 s, annealing at 60 °C for 10 s and extension at 72 °C for 10 s. Relative transcript levels in drug-stimulated cells were determined using the comparative Ct method (ΔΔCt method). Fold-change values of ±2–3 were considered minor, ±3–5 as moderate and >±5 as high.

[2] = tested on: drug transporter mRNA expression in HEC-1A cells; assay: Drug transporter mRNA expression (RT-qPCR) in stimulated HEC-1A cells; settings: for Change in expression of drug transporters (panel of 17): 72 h stimulation
Protocol: as §1, §2, §3, §4

[3] = tested on: VK2/E6E7 cells; assay: Intracellular accumulation of digoxin in cytokine-stimulated VK2/E6E7 cells; settings: 5 µM digoxin, 1 h; after cytokine stimulation
Protocol: A 500 μL sample from each well was stored and the remainder of the buffer was aspirated from the plates. The wells were then washed twice with ice-cold PBS to stop any further uptake of the drug. To each well, 500 μL of ddH2O was added and cells were removed using a cell scraper. The cell suspension was then transferred to individual tubes for mechanical cell lysis using a 21-gauge needle followed by a freeze-thaw cycle at -80 °C. Protein content for normalisation calculations was measured via a bicinchoninic acid assay. The solution was then centrifuged at 14,000× g for 15 min and the supernatants were stored at -80 °C until analysis by LC-MS/MS. Samples were centrifuged at 14,800 rpm for 5 min to remove cell debris. […] Analysis was performed on a Thermo Surveyor TSQ Quantum system using electrospray ionisation in positive ion mode. Samples (5 μL) were applied to a C18 column (Gemini 3μ, 150 × 3.0 mm, Phenomenex, Macclesfield, UK) maintained at 40 °C. […] The flow rate for both methods was 350 μL/min. […] Cytokines were reconstituted in sterile and distilled water and added individually to cell cultures at the following concentrations: TNF-α (200 pg/mL), IL-1β (8 ng/mL), IL-6 (5 ng/mL) and IL-8 (100 ng/mL) were. […] Cells were stimulated for either drugs, cytokines or hormones for 72 h, before harvesting by centrifugation at 300× g for 10 min at 4 °C. […] All cell line stimulation experiments were conducted as a minimum of three biological repeats.

[4] = tested on: HEC-1A cells; assay: Cytokine production of HEC-1A cells stimulated with PAMPs (Luminex)
Protocol: HEC-1A cells were stimulated with different PAMPs (pam 3CSK4, lipoteichoic acid, poly(I:C), Escherichia coli lipopolysaccharide, FSL-1, flagellin, imiquimod, zymosan) (InvivoGen, San Diego, CA, USA) diluted in cell culture media with incubation at 37 °C in 5% CO2 for 24 h. PAMPs were titrated to determine the optimal concentration for cytokine stimulation. Blank samples contained media only. After 24 h, the supernatant was collected for cytokine detection. Cytokine levels were determined using a Magnetic Luminex® Performance Assay kit (R&D Systems, Minneapolis, MN, USA) following the manufacturer’s instructions. Analyte-specific antibodies were pre-coated onto colour-coded microparticles and detection was carried out with a biotinylated antibody cocktail specific to the target cytokines and a streptavidin-phycoerythrin conjugate. Samples were resuspended in 100 µL of Washing Buffer and measured for a phycoerythrin-derived signal using a Luminex® 100 instrument.

[5] = 72 h hormone stimulation, vs ethanol control, increased

Compound	Expression of uptake transporters OATP8 and CNT3 [1]	P-gp mRNA level [1]	Change in expression of drug transporters (panel of 17) [2]	Effect on intracellular uptake of digoxin [3]	Pro-inflammatory cytokine production ([4]; 24 h stimulation)	Optimum concentration for cytokine stimulation ([4]; titration 1–50 µg/ml)	CNT3 mRNA expression, fold-change [1, 5]	MRP3 mRNA expression, fold-change [1, 5]	BCRP mRNA expression, fold-change [2, 5]
IL-1β: pro-inflammatory cytokine	induce the expression	increased	No changes	significantly reduced					
poly(I:C)					induced production of IL-6, IL-8, IL-1α, GM-CSF and TNF-α	25 µg/mL			
IL-6: pro-inflammatory cytokine	induce the expression	increased	No changes	not					
TNF-α	induce the expression	increased	No changes	significantly reduced					
C[C@]12CC[C@@H]3c4ccc(O)cc4CC[C@H]3[C@@H]1CC[C@@H]2O [β-estradiol]							3.70 ± 1.43 fold	2.14 ± 0.30 fold	2.64 ± 0.44 fold
